Structures are written as SMILES. Values joined by “and” are separate entries in the source; they are usually repeats but may differ in a detail not shown here. Identical values can stand only once. Toxic doses and inconclusive results are not listed. Peptide text beside a SMILES is read from it.

In this assay the test system is P388 leukemia ip, CD2F1 mice, survival T/C. Briefly: NCI In Vivo Anticancer Drug Screen. Data for tumor model P388 Leukemia (intraperitoneal) in CD2F1 (CDF1) mice. The note with it: endpoint: median survival time, higher = longer survival. A digest of the protocol:
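Mice carrying the transplanted tumor received test compound or vehicle. Survival was recorded in each group, and the value is the treated-group measurement divided by that of the vehicle-treated control group.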

The mark [1] stands for this setting: dose: 50.0 mg/kg/injection, schedule: Q01DX005 (ip), vehicle: Klucel (hydroxypropylcellulose) (HPC).
The mark [2] stands for this setting: dose: 100.0 mg/kg/injection, schedule: Q01DX005 (ip), vehicle: Klucel (hydroxypropylcellulose) (HPC).
Where [3] appears, read: dose: 200.0 mg/kg/injection, schedule: Q01DX005 (ip), vehicle: Klucel (hydroxypropylcellulose) (HPC).
Where [4] appears, read: dose: 50.0 mg/kg/injection, schedule: Q01DX009 (ip), vehicle: saline with Tween-80.
[5] abbreviates: dose: 100.0 mg/kg/injection, schedule: Q01DX009 (ip), vehicle: saline with Tween-80.
Setting [6] is: dose: 200.0 mg/kg/injection, schedule: Q01DX009 (ip), vehicle: saline with Tween-80.
[7] abbreviates: dose: 50.0 mg/kg/injection, schedule: Q01DX009 (ip), vehicle: saline.
Setting [8] is: dose: 100.0 mg/kg/injection, schedule: Q01DX009 (ip), vehicle: saline.
Where [9] appears, read: dose: 50.0 mg/kg/injection, schedule: Q01DX005 (ip), vehicle: saline with Tween-80.
[10] abbreviates: dose: 100.0 mg/kg/injection, schedule: Q01DX005 (ip), vehicle: saline with Tween-80.
[11] abbreviates: dose: 200.0 mg/kg/injection, schedule: Q01DX005 (ip), vehicle: saline with Tween-80.
Setting [12] is: dose: 200.0 mg/kg/injection, schedule: Q01DX009 (ip), vehicle: saline.
Setting [13] is: dose: 60.0 mg/kg/injection, schedule: Q01DX005 (ip), vehicle: saline.
Setting [14] is: dose: 120.0 mg/kg/injection, schedule: Q01DX005 (ip), vehicle: saline.

Take `NC(CS)C(=O)[O][Sn]([O]C(=O)C(N)CS)([O]C(=O)C(N)CS)[O]C(=O)C(N)CS` (configuration not stated): the T/C by setting is: under setting [1], 99 % of control; under setting [2], 108 % of control; under setting [3], 89 % of control.

In the case of `O=S(=O)(c1ccc(F)cc1)N(CCCCCN(S(=O)(=O)c1ccc(F)cc1)S(=O)(=O)c1ccc(F)cc1)S(=O)(=O)c1ccc(F)cc1`, the T/C (dose: 60.0 mg/kg/injection, schedule: Q01DX005 (ip), vehicle: saline with Tween-80) was 97 % of control; the T/C (dose: 120.0 mg/kg/injection, schedule: Q01DX005 (ip), vehicle: saline with Tween-80) is 91 % of control; the T/C (dose: 240.0 mg/kg/injection, schedule: Q01DX005 (ip), vehicle: saline with Tween-80) is 90 % of control.

For `CCOC(=O)C1CC(=O)C1C(=O)OCC` (configuration not stated), the T/C is 104 % of control (dose: 12.5 mg/kg/injection, schedule: Q01DX009 (ip), vehicle: saline with Tween-80); 103 % of control (dose: 25.0 mg/kg/injection, schedule: Q01DX009 (ip), vehicle: saline with Tween-80); 100 % of control under setting [4]; 100 % of control under setting [5]; 101 % of control under setting [6].

Turning to `COc1ccc2[nH]c(=O)c(COC(C)=O)c(COC(C)=O)c2c1`, the T/C reads like this: under setting [1], 87 % of control; under setting [2], 87 % of control; under setting [3], 97 % of control.

On to `COC(=O)C(Cc1ccc(O)cc1)NC(=O)C(Cc1ccccc1)NC(C)=O` (stereo not drawn) (Ac-Phe-Tyr-OMe; configuration not given here), for which the T/C under setting [1] was 92 % of control, the T/C under setting [2] is 97 % of control and the T/C under setting [3] is 88 % of control.

As for `CC(C)(C)c1cc(C[N+](C)(C)C)c(O)c(C(C)(C)C)c1`, the T/C is, setting by setting: (dose: 12.5 mg/kg/injection, schedule: Q01DX005 (ip), vehicle: distilled water + alcohol) 95 % of control; (dose: 25.0 mg/kg/injection, schedule: Q01DX005 (ip), vehicle: distilled water + alcohol) 96 % of control; (dose: 50.0 mg/kg/injection, schedule: Q01DX005 (ip), vehicle: distilled water + alcohol) 101 % of control and 104 % of control.

With `ClC(Cl)=Nc1ccc(Cl)cc1Cl`, the T/C is 100 % of control under setting [7] and 89 % of control under setting [8].

As for `O=C1CCCCC1C(O)c1c(Cl)cccc1Cl` (configuration not stated), the T/C is, setting by setting: under setting [4], 99 % of control; under setting [5], 99 % of control; under setting [6], 100 % of control.

Consider `CC1CN(Cc2ccccc2)CC(C)N1Cc1ccccc1` (configuration not stated), for which the T/C is, setting by setting: under setting [9], 103 % of control; under setting [10], 105 % of control; under setting [11], 103 % of control.

On to `CP1(=O)CCC2=C1CCc1cc(O)ccc12` (configuration not stated), for which the T/C runs as follows: (dose: 6.25 mg/kg/injection, schedule: Q01DX009 (ip), vehicle: Klucel (hydroxypropylcellulose) (HPC)) 100 % of control; (dose: 12.5 mg/kg/injection, schedule: Q01DX009 (ip), vehicle: Klucel (hydroxypropylcellulose) (HPC)) 100 % of control; (dose: 25.0 mg/kg/injection, schedule: Q01DX009 (ip), vehicle: Klucel (hydroxypropylcellulose) (HPC)) 103 % of control and 106 % of control.

In the case of `NC(=S)c1ccc(N=Cc2c(O)ccc3ccccc23)cc1`, the T/C runs as follows: (dose: 50.0 mg/kg/injection, schedule: Q01DX001 (ip), vehicle: Klucel (hydroxypropylcellulose) (HPC)) 100 % of control; (dose: 100.0 mg/kg/injection, schedule: Q01DX001 (ip), vehicle: Klucel (hydroxypropylcellulose) (HPC)) 94 % of control; (dose: 200.0 mg/kg/injection, schedule: Q01DX001 (ip), vehicle: Klucel (hydroxypropylcellulose) (HPC)) 97 % of control.

As to `ClCC[N+]12CC[N+](CCCl)(CC1)C2` (tested in a mixture with another compound), the T/C (dose: 12.5 mg/kg/injection, schedule: Q01DX009 (ip), vehicle: water) is 105 % of control and 118 % of control; the T/C (dose: 25.0 mg/kg/injection, schedule: Q01DX005 (ip), vehicle: saline) is 116 % of control; the T/C (dose: 25.0 mg/kg/injection, schedule: Q01DX009 (ip), vehicle: water) is 119 % of control; the T/C under setting [7] is 159 % of control and 171 % of control; the T/C (dose: 50.0 mg/kg/injection, schedule: Q01DX009 (ip), vehicle: water) is 150 % of control; the T/C (dose: 100.0 mg/kg/injection, schedule: Q01DX005 (ip), vehicle: saline) was 162 % of control and 168 % of control. Further, the T/C is 197 % of control and 198 % of control under setting [8]; 160 % of control and 196 % of control (dose: 100.0 mg/kg/injection, schedule: Q01DX009 (ip), vehicle: water); 161 % of control and 212 % of control (dose: 200.0 mg/kg/injection, schedule: Q01DX005 (ip), vehicle: saline); 240 % of control and 263 % of control under setting [12]; 188 % of control (dose: 200.0 mg/kg/injection, schedule: Q01DX009 (ip), vehicle: water); 281 % of control and 296 % of control (dose: 400.0 mg/kg/injection, schedule: Q01DX009 (ip), vehicle: saline).

As for `c1ccc(P2CCc3[nH]c4ccccc4c3C2)cc1` (configuration not stated), the T/C by setting is: (dose: 50.0 mg/kg/injection, schedule: Q04DX003 (ip), vehicle: saline with Tween-80) 101 % of control; (dose: 100.0 mg/kg/injection, schedule: Q04DX003 (ip), vehicle: saline with Tween-80) 105 % of control and 110 % of control; (dose: 200.0 mg/kg/injection, schedule: Q04DX003 (ip), vehicle: saline with Tween-80) 103 % of control and 120 % of control; (dose: 400.0 mg/kg/injection, schedule: Q04DX003 (ip), vehicle: saline with Tween-80) 114 % of control.

For the molecule `CNC(=S)N/N=C\C(C)=N/N1CCCCCC1`, the T/C reads like this: (dose: 100.0 mg/kg/injection, schedule: Q04DX002 (ip), vehicle: saline) 97 % of control; (dose: 200.0 mg/kg/injection, schedule: Q04DX002 (ip), vehicle: saline) 101 % of control; (dose: 400.0 mg/kg/injection, schedule: Q04DX002 (ip), vehicle: saline) 93 % of control.

For `C/C=C(\C)C(=O)OCc1c2c(c(OC)c3occ(C)c13)C=CCC2C` (configuration not stated), the T/C runs as follows: (dose: 5.5 mg/kg/injection, schedule: Q01DX009 (ip), vehicle: Klucel (hydroxypropylcellulose) (HPC)) 94 % of control; (dose: 11.0 mg/kg/injection, schedule: Q01DX009 (ip), vehicle: Klucel (hydroxypropylcellulose) (HPC)) 100 % of control; (dose: 22.0 mg/kg/injection, schedule: Q01DX009 (ip), vehicle: Klucel (hydroxypropylcellulose) (HPC)) 100 % of control; (dose: 44.0 mg/kg/injection, schedule: Q01DX009 (ip), vehicle: Klucel (hydroxypropylcellulose) (HPC)) 104 % of control.

`Oc1ccc2ccccc2c1C(c1ccc(Cl)cc1)c1c(O)ccc2ccccc12`: the T/C under setting [9] was 100 % of control, the T/C under setting [10] is 101 % of control and the T/C under setting [11] was 107 % of control.

Take `O=C1CCC(O)N1CN1C(=O)CCC1O` (configuration not stated): the T/C was 100 % of control under setting [13]; 108 % of control under setting [14]; 100 % of control (dose: 240.0 mg/kg/injection, schedule: Q01DX005 (ip), vehicle: saline).

Consider `C1CCc2[nH]nc(-c3n[nH]c4c3CCCCC4)c2CC1`, for which the T/C is 100 % of control (dose: 60.0 mg/kg/injection, schedule: Q01DX005 (ip), vehicle: Klucel (hydroxypropylcellulose) (HPC)); 94 % of control (dose: 120.0 mg/kg/injection, schedule: Q01DX005 (ip), vehicle: Klucel (hydroxypropylcellulose) (HPC)); 96 % of control (dose: 240.0 mg/kg/injection, schedule: Q01DX005 (ip), vehicle: Klucel (hydroxypropylcellulose) (HPC)).

Regarding `COC(=O)c1nn(-c2ccccc2)c(C(=O)OC)c1C(=O)OC`, the T/C by setting is: (dose: 100.0 mg/kg/injection, schedule: Q01DX001 (ip), vehicle: saline with Tween-80) 111 % of control; (dose: 200.0 mg/kg/injection, schedule: Q01DX001 (ip), vehicle: saline with Tween-80) 112 % of control; (dose: 400.0 mg/kg/injection, schedule: Q01DX001 (ip), vehicle: saline with Tween-80) 98 % of control.

For `Cc1cc2nnnn2c2ccccc12`, the T/C was 96 % of control under setting [7], 99 % of control under setting [8] and 95 % of control under setting [12].

As to `CSCC(NP1(=O)SC(NN=C(C)C)=NC1(C)C)C(=O)O` (configuration not stated), the T/C is 106 % of control under setting [13] and 107 % of control under setting [14].

As for `O=C(O)CNC(=O)Cc1cccc2ccccc12`, the T/C was 102 % of control under setting [1], 98 % of control under setting [2] and 95 % of control under setting [3].

Source of the values: PubChem BioAssay AID330 (DTP/NCI, 2004).
